Experiment: xn = mol fraction of the nth substance listed
Conditions: Liquid, Vibrating tube method

CCC(=O)c1ccccc1 [ethyl phenyl ketone] + Cc1ccccc1
mass density [kg/m3]
Conditions | x2 = 0 | x2 = 0.1048 | x2 = 0.2025 | x2 = 0.3006 | x2 = 0.3991 | x2 = 0.4998 | x2 = 0.6004 | x2 = 0.7036 | x2 = 0.8028 | x2 = 0.902
318.15 K, 100 kPa | 988.3 | 976.2 | 965 | 952.8 | 940 | 926.14 | 911.27 | 895.5 | 879.2 | 861.9
318.15 K, 2130 kPa | 989.6 | 977.6 | 966.4 | 954.3 | 941.4 | 927.61 | 912.78 | 897 | 880.8 | 863.6
318.15 K, 4150 kPa | 990.9 | 978.9 | 967.7 | 955.6 | 942.8 | 929.03 | 914.26 | 898.5 | 882.4 | 865.2
318.15 K, 6180 kPa | 992.1 | 980.1 | 969 | 956.9 | 944.1 | 930.44 | 915.7 | 900 | 883.9 | 866.8
318.15 K, 8210 kPa | 993.3 | 981.4 | 970.2 | 958.2 | 945.5 | 931.83 | 917.14 | 901.5 | 885.4 | 868.4
318.15 K, 10230 kPa | 994.6 | 982.7 | 971.5 | 959.5 | 946.8 | 933.2 | 918.57 | 903 | 886.9 | 870
318.15 K, 11250 kPa | 995.2 | 983.3 | 972.1 | 960.1 | 947.5 | 933.86 | 919.25 | 903.7 | 887.7 | 870.7
318.15 K, 12260 kPa | 995.8 | 983.9 | 972.8 | 960.8 | 948.1 | 934.53 | 919.93 | 904.4 | 888.4 | 871.5
318.15 K, 14290 kPa | 997 | 985.1 | 974 | 962 | 949.4 | 935.85 | 921.32 | 905.8 | 889.8 | 873
318.15 K, 16310 kPa | 998.1 | 986.3 | 975.2 | 963.3 | 950.7 | 937.19 | 922.68 | 907.2 | 891.3 | 874.5
318.15 K, 18340 kPa | 999.3 | 987.5 | 976.4 | 964.5 | 952 | 938.52 | 924.03 | 908.6 | 892.7 | 876
318.15 K, 20370 kPa | 1000.4 | 988.7 | 977.6 | 965.7 | 953.2 | 939.75 | 925.33 | 909.9 | 894.1 | 877.4
318.15 K, 22390 kPa | 1001.6 | 989.9 | 978.8 | 967 | 954.5 | 941.04 | 926.66 | 911.2 | 895.5 | 878.9
318.15 K, 24420 kPa | 1002.7 | 991 | 980 | 968.1 | 955.7 | 942.28 | 927.93 | 912.5 | 896.8 | 880.3
318.15 K, 26450 kPa | 1003.8 | 992.1 | 981.1 | 969.3 | 956.8 | 943.5 | 929.18 | 913.8 | 898.2 | 881.6
318.15 K, 28470 kPa | 1004.9 | 993.3 | 982.2 | 970.5 | 958 | 944.7 | 930.43 | 915.1 | 899.5 | 883
318.15 K, 29490 kPa | 1005.5 | 993.8 | 982.8 | 971.1 | 958.6 | 945.34 | 931.09 | 915.7 | 900.1 | 883.7
318.15 K, 30500 kPa | 1006 | 994.4 | 983.4 | 971.6 | 959.2 | 945.93 | 931.69 | 916.4 | 900.8 | 884.3
318.15 K, 32530 kPa | 1007.1 | 995.5 | 984.5 | 972.8 | 960.4 | 947.12 | 932.92 | 917.6 | 902.1 | 885.7
318.15 K, 34550 kPa | 1008.2 | 996.6 | 985.6 | 973.9 | 961.5 | 948.29 | 934.11 | 918.8 | 903.3 | 887
318.15 K, 36580 kPa | 1009.2 | 997.7 | 986.7 | 975 | 962.7 | 949.45 | 935.3 | 920 | 904.6 | 888.3
318.15 K, 38600 kPa | 1010.3 | 998.7 | 987.8 | 976.1 | 963.7 | 950.58 | 936.48 | 921.2 | 905.8 | 889.5
318.15 K, 39620 kPa | 1010.8 | 999.3 | 988.3 | 976.6 | 964.3 | 951.19 | 937.08 | 921.9 | 906.4 | 890.2
328.15 K, 100 kPa | 979.6 | 967.8 | 956.5 | 944.4 | 931.4 | 917.54 | 902.56 | 886.7 | 870.2 | 852.8
328.15 K, 2130 kPa | 981.1 | 969.1 | 957.8 | 945.7 | 932.8 | 918.96 | 904.06 | 888.3 | 871.8 | 854.5
328.15 K, 4150 kPa | 982.4 | 970.5 | 959.2 | 947.1 | 934.3 | 920.45 | 905.6 | 889.9 | 873.5 | 856.2
328.15 K, 6180 kPa | 983.7 | 971.8 | 960.5 | 948.5 | 935.7 | 921.95 | 907.14 | 891.5 | 875.1 | 857.9
328.15 K, 8210 kPa | 985 | 973.1 | 961.8 | 949.9 | 937.1 | 923.37 | 908.63 | 893 | 876.7 | 859.6
328.15 K, 10230 kPa | 986.2 | 974.5 | 963.2 | 951.2 | 938.5 | 924.82 | 910.11 | 894.5 | 878.3 | 861.2
328.15 K, 11250 kPa | 986.9 | 975.1 | 963.8 | 951.9 | 939.2 | 925.52 | 910.85 | 895.3 | 879 | 862
328.15 K, 12260 kPa | 987.5 | 975.7 | 964.5 | 952.5 | 939.9 | 926.2 | 911.57 | 896 | 879.8 | 862.8
328.15 K, 14290 kPa | 988.7 | 977 | 965.8 | 953.9 | 941.2 | 927.61 | 913.02 | 897.5 | 881.4 | 864.5
328.15 K, 16310 kPa | 990 | 978.3 | 967.1 | 955.2 | 942.6 | 928.98 | 914.44 | 898.9 | 882.9 | 866
328.15 K, 18340 kPa | 991.2 | 979.5 | 968.3 | 956.5 | 943.9 | 930.34 | 915.83 | 900.4 | 884.4 | 867.6
328.15 K, 20370 kPa | 992.3 | 980.8 | 969.6 | 957.7 | 945.2 | 931.69 | 917.22 | 901.8 | 885.8 | 869.1
328.15 K, 22390 kPa | 993.5 | 982 | 970.8 | 959 | 946.5 | 933.04 | 918.61 | 903.2 | 887.3 | 870.6
328.15 K, 24420 kPa | 994.7 | 983.2 | 972 | 960.2 | 947.7 | 934.34 | 919.95 | 904.6 | 888.7 | 872
328.15 K, 26450 kPa | 995.9 | 984.4 | 973.2 | 961.5 | 949 | 935.61 | 921.26 | 905.9 | 890.1 | 873.5
328.15 K, 28470 kPa | 997.1 | 985.6 | 974.5 | 962.7 | 950.2 | 936.91 | 922.59 | 907.2 | 891.5 | 874.9
328.15 K, 29490 kPa | 997.6 | 986.2 | 975 | 963.3 | 950.8 | 937.56 | 923.26 | 908 | 892.2 | 875.7
328.15 K, 30500 kPa | 998.2 | 986.7 | 975.6 | 963.9 | 951.5 | 938.18 | 923.89 | 908.6 | 892.9 | 876.4
328.15 K, 32530 kPa | 999.3 | 987.9 | 976.8 | 965.1 | 952.7 | 939.41 | 925.17 | 909.9 | 894.2 | 877.7
328.15 K, 34550 kPa | 1000.4 | 989 | 978 | 966.2 | 953.9 | 940.65 | 926.43 | 911.2 | 895.6 | 879.1
328.15 K, 36580 kPa | 1001.5 | 990.2 | 979.1 | 967.4 | 955.1 | 941.85 | 927.68 | 912.5 | 896.9 | 880.4
328.15 K, 38600 kPa | 1002.6 | 991.3 | 980.3 | 968.6 | 956.2 | 943.07 | 928.95 | 913.7 | 898.2 | 881.8
328.15 K, 39620 kPa | 1003.2 | 991.9 | 980.8 | 969.1 | 956.9 | 943.64 | 929.53 | 914.4 | 898.8 | 882.4
